Assay results published in PubChem BioAssay (NCI).
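Results reflect a 48-hour exposure of cells in 96-well plates to compound at five concentrations. TGI: concentration producing complete growth inhibition.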

What was measured:
Experiment in all cases: DTP human tumour cell line panel, 48 h
[1] = test system: UACC-257 melanoma
[2] = test system: SK-MEL-2 melanoma
[3] = test system: NCI-H226 lung
[4] = test system: LXFL 529 NSCLC
[5] = test system: RPMI-8226 leukemia
[6] = test system: IGROV1 ovarian
[7] = test system: SF-539 CNS
[8] = test system: HL-60(TB) leukemia
[9] = test system: U251 CNS
[10] = test system: SNB-78 CNS

| Structure (SMILES) | TGI [1] [µM] | TGI [2] [µM] | TGI [3] [µM] | TGI [4] [µM] | TGI [5] [µM] | TGI [6] [µM] | TGI [7] [µM] | TGI [8] [µM] | TGI [9] [µM] | TGI [10] [µM] |
| --- | --- | --- | --- | --- | --- | --- | --- | --- | --- | --- |
| CCNCC(=O)O[C@]1(CC)C(=O)OCc2c1cc1n(c2=O)Cc2cc3ccccc3nc2-1 | 12.2 | 7.92 | 1.29 | 42.6 | 4.07 | 24.5 | 0.574 | 0.849 | 6.61 | > 100 |
| O=C(CO)CC(=O)C(=O)Nc1nc([N+](=O)[O-])cs1 | > 100 | > 100 | > 100 | > 100 | > 100 | > 100 | > 100 | > 100 | > 100 | > 100 |
| Cc1cc2c(=O)n(-c3ccc(F)cc3)c(C)nc2c(C(=O)O)c1C | > 100 | > 100 | > 100 | > 100 | > 100 | > 100 | > 100 | > 100 | > 100 | > 100 |
| N/N=C1\C(=O)N(C2CCCCC2)C(=O)C1C(=O)NC1CCCCC1 (stereo not drawn) | > 100 | 74.7 | > 100 | > 100 | > 100 | > 100 | > 100 | 89.3 | > 100 | > 100 |
| COc1ccc(/C(=N/NC(=O)NN)C(c2ccc(OC)cc2)C2(O)CNc3c(Cl)cc(Cl)cc32)cc1 (stereo not drawn) | > 100 | > 100 | > 100 | > 100 | > 100 | > 100 | > 100 | > 100 | > 100 | > 100 |
| CC(=O)C1CC=C(C)CC1 (stereo not drawn) | > 100 | > 100 | > 100 | > 100 | > 100 | > 100 | > 100 | > 100 | > 100 | > 100 |
| Cc1cc(N(CCC#N)S(C)(=O)=O)ccc1C=O | > 100 | > 100 | > 100 | > 100 | > 100 | > 100 | > 100 | > 100 | > 100 | > 100 |
| CCn1c2c(n(CC)c1=S)-c1c(n(CC)c(=S)n1CC)SSSS2 | 22.6 | 31.2 | 52.2 | 5.97 | 9.34 | 34.3 | 28.2 | 8.76 | 45.5 | 28.1 |
| Brc1ccc(-c2nnc(-c3nn(-c4ccccc4)c4nc5ccccc5nc34)o2)cc1 | > 100 | > 100 | > 100 | > 100 | > 100 | > 100 | > 100 | > 100 | > 100 | > 100 |
| CN(C)c1ccc(/C=C(/NC(=O)c2ccccc2)c2nc3ccc(Cl)cc3[nH]2)cc1 | > 86.5 | 99.4 | > 85.1 | 97.4 | > 82.2 | > 100 | > 100 | 66.9 | > 100 | > 100 |
| CCOC(=O)C(=O)Nc1ccc(C)cc1C | > 100 | > 100 | > 100 | > 100 | > 100 | > 100 | > 100 | > 100 | > 100 | > 100 |
| C=C/C=C(\NC(=O)C(Cl)(Cl)Cl)[Si](C)(C)C | > 100 | > 100 | > 100 | > 100 | > 100 | > 100 | > 100 | > 100 | > 100 | > 100 |
| CC(=O)OC1CC(n2cc(F)c(=O)[nH]c2=O)OC1CO (stereo not drawn) | > 100 | > 100 | > 100 | 16.4 | > 100 | > 100 | 5.02 | > 100 | > 100 | > 100 |
| O=C(CC1(O)C(=O)Nc2ccccc21)c1ccccc1Cl (stereo not drawn) | > 100 | > 100 | > 100 | > 100 | > 100 | > 100 | > 100 | > 100 |  | > 100 |
| CC1=CC(=O)CCC2(C)C1CC[C@@H]2OC=O (stereo partly drawn) | > 100 | > 100 | > 100 | > 100 | > 100 | > 100 | > 100 | > 100 | > 100 | > 100 |
| Cc1ccc(-c2nc(SCC(=O)O)n[nH]2)cc1 | > 100 | > 100 | > 100 | > 100 | > 100 | > 100 | > 100 | > 100 | > 100 | > 100 |
| CC/C=C1\N=C(c2ccc(Cl)cc2)OC1=O | > 100 | > 100 | > 100 | > 100 | > 100 | > 100 | > 100 | > 100 |  | > 100 |
| C[C@]12CCC[C@H](Cl)C1(O)C[C@H](C(=O)O)CC2 (stereo partly drawn) | > 100 | > 100 | > 100 | > 100 | > 100 | > 100 | > 100 | > 100 | > 100 | > 100 |
| NC(N)=NS(=O)(=O)c1ccc(NCc2c3ccccc3nc3ccccc23)cc1 | > 69.3 | > 67 | 4.85 | 44.3 | > 72.5 | 65 | 4.72 | 10.9 | 10.9 | > 66.9 |
| CCOC(=O)C(=O)Nc1c(F)cc(F)cc1Br | > 100 | > 100 | > 100 | > 100 | > 100 | > 100 | > 100 | > 100 | > 100 | > 100 |
